Assay results from patent US8436151B2, “Indoleamine 2,3-dioxygenase-2 antibodies” (Lankenau Institute for Medical Research, priority 2006, dated 2013).
“Also recorded” adds a separate entry of the source.

Assays:
IDO2 = target: T1, IDO2 (Mus musculus, UniProt Q8R0V5); test: Cell-based kynurenine detection assay in IDO2 expressing T-REx cells; design: species or system murine; details: doxycycline-induced T-REx cells, increasing concentrations, 5 days (FIG. 8B)
T1 construct: The complete coding regions of murine IDO1 and IDO2 were cloned in-frame with the V5/His TAG coding region in pcDNA4/TO; expressed in transfected cells; host or cells: T-REx-293 cells (Invitrogen), pcDNA4/TO-muIDO2, doxycycline-induced
T1 sequence (Q8R0V5 1-405): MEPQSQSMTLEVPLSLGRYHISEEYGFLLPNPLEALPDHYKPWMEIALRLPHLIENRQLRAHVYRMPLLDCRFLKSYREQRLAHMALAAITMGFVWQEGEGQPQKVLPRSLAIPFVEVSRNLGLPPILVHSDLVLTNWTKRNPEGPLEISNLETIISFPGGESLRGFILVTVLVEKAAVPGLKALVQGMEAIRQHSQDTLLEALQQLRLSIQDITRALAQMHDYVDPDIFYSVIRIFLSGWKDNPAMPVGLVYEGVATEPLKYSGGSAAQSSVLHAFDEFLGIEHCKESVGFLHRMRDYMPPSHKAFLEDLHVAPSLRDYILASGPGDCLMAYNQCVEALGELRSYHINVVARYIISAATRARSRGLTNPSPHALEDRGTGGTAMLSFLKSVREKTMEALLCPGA
Method: This assay measures the product of the indoleamine 2,3-dioxygenase conversion of L-tryptophan to N-formyl-kynurenine by acid hydrolysis to kynurenine, which is measured indirectly though the absorbance (480 nm) of imine produced by the reaction of the aromatic amino group of klynurenine with p-dimethylaminobenzaldehyde (Ehrlich's reagent) as described by Takikawa et al. (J. Biol. Chem. (1988) 263:2041-2048). Typically, 200 μL of media from the test sample is combined with 12.5 μL of 30% TCA and incubated at 50° C. for 30 minutes. Evaporation was avoided by sealing the rim of the plate or tubes with parafilm. Samples are clarified by centrifugation for 10 minutes at 3-10K rpm. 100 μL of the supernatant was removed to a fresh well in an assay plate and mixed with 100 μL of fresh Ehrlich's reagent (2% p-dimethylaminobenzaldehyde w/v with glacial acetic acid). The plates were incubated for 10-30 minutes at room temperature and the absorbance was read at 490 nm. Typically, assays were performed in triplicate and the data analyzed using Excel software program (Microsoft). […] Typically, control values were averaged and subtracted from the sample values. The complete coding regions of murine IDO1 and IDO2 were cloned in-frame with the […] TAG coding region in pcDNA4/TO (Invitrogen) which contains a regulatory region that is repressed by the tetracyclin regulated repressor (TetR). The complete coding regions of IDO1 and IDO2 were generated using gene specific primers [IDO2 5'[…] ID NO: 16) and IDO1 5'[…] ID NO: 17)] and 3' primers that were gene specific and removed the termination codon [IDO[…] ID NO: 18) and IDO1 minus stop [NT] ID NO: 19)]. The IDO1 and 2 coding regions where then cloned in-frame with the […] carboxyl terminal Tag in the pcDNA4 TO vector (Invitrogen). IDO2 expressing 293 cells metabolize tryptophan and can be inhibited by 1-methyl-[…]). […] The cells were maintained in growth media plus supplements for 5 days, after which the media was harvested and subjected to analysis for the presence of kynurenine.

[1] = tested on: allogeneic mouse concepti; details: Mellor et al. 2001; Munn et al. 1998; cited from earlier work
[2] = tested on: purified recIDO2 proteins (rmuIDO2 or rhuIDO2); test: Enzyme assay of purified recombinant IDO2 (kynurenine formed from L-tryptophan); type: biochemical, murine and human; details: varying amounts 0-100 μM (FIG. 25)
Method: IDO2 activity was measured as the amount of kynurenine formed from L-tryptophan. The standard assay conditions consisted of a mixture containing 50 mM Pipes pH 6.5, between 50 and 600 nM of rmuIDO2 or rhuIDO2 (where 100 nM of rIDO2 is approximately 5.5 μg protein per mL reaction), 200 U catalase (0.2 mg/mL, sp act. ˜1000 U/mg), 200 μM L-tryptophan, 10 μM methylene blue and 20 mM ascorbic acid. The mixture was incubated at various times ranging from 15 minutes to 4 hours at 37° C. before the reaction was stopped by adding trichloroacetic acid (TCA) to 3% final. The samples were then heated to 50-60° C. for 30 minutes to convert N-formyl-kynureneine to kynurenine, clarified by centrifugation, and supernatants (100 μL) were removed to a new dish, mixed with 100 μL Ehrlich's reagent (2% p-dimethylaminobenzaldehyde w/v in glacial acetic acid), and incubated 10-30 minutes at room temperature. Absorbance at 490 nm was determined on a plate reader and the data collected and analyzed using Excel software (Microsoft). Typically, samples were analyzed in triplicate and control values were typically averaged and subtracted from sample values. Enzyme activity was estimated based on the conversion of tryptophan to kynurenine using linear regression analysis based on an absorbance standard curve derived from assay measurements on known amounts of kynurenine.

IDO2 activation of LIP = test: Western blot of LIP (NFIL-6) expression in IDO2 expressing T-REx cells; type: cell-based; details: for inhibition of IDO2 activation of LIP: Western blot (FIG. 9B)
Method: T-REx™ cells (control) and T-REx™ cells expressing IDO1 were either uninduced or induced with doxycycline in the presence or absence of added tryptophan (100 μM). […] T-REx™ cells (control) and T-REx™ cells expressing IDO2 were either uninduced or induced with doxycycline in the presence or absence of added tryptophan. Cells were also optionally treated with the D, L and mixed DL racemic isomers of 1-methyl-tryptophan, (1M-D-T, 1M-L-T and 1M-LD-T, respectively). […] T-REx™ cells expressing IDO2 were either uninduced or induced with doxycycline in the presence or absence of added tryptophan.
Cell lysates were prepared as follows: Cells were removed from the dish by scrapping or pipetting in PBS and collected by centrifugation (2000 rpm/5 minutes). The supernatant was discarded and the cell pellet was lysed in RIPA buffer [50 mM Tris-HCl pH 7.4/150 mM NaCl/1% Triton x-100/1% Sodium deoxycholate/0.1% SDS] plus a protease inhibitor cocktail (Calbiochem Cat #539134). Typically 5×10^5 cells were resuspended in 200 μL of RIPA buffer. Cells lysates were vortexed and incubated on ice or frozen at −20° C. until use. Prior to use lysates were clarified by centrifugation (10,000 rpm/15 minutes) and heat denatured at 95° C. in SDS/sample buffer (100 mM Tris/25% glycerol/2% SDS/0.01% bromophenol blue/25 mM DTT). Proteins were separated by PAGE using NuPAGE® Gels (Invitrogen) and transferred at 100 Volts on to Immobilon-NC Nitrocellulose membranes (Millipore, Billerica, Mass., Cat #HAHY00010) in transfer buffer (25 mM Tris pH 8.3/192 mM glycine/20% methanol). […] For secondary antibody applications, the secondary antibody containing HRP was added in blocking buffer at the appropriate dilution, incubated by shaking at room temperature for 1 hour, and washed 5-6 times in PBS/0.1% Tween. The western membranes were developed by Chemiluminescence using SuperSignal® West Pico substrate (Pierce, Rockford, Ill., Cat #34078), exposed to autography film for an appropriate period of time (3 seconds to 18 hours), and developed.

tumor = details: background statement; listed as L-1MT; cited from earlier work
IDO1 = target: T2, IDO1 (Mus musculus, UniProt P28776); type: cell-based, murine
T2 construct: The complete coding regions of murine IDO1 and IDO2 were cloned in-frame with the V5/His TAG coding region in pcDNA4/TO; expressed in transfected cells; host or cells: T-REx-293 cells (Invitrogen), pcDNA4/TO-muIDO1, doxycycline-induced
T2 sequence (P28776 whole entry): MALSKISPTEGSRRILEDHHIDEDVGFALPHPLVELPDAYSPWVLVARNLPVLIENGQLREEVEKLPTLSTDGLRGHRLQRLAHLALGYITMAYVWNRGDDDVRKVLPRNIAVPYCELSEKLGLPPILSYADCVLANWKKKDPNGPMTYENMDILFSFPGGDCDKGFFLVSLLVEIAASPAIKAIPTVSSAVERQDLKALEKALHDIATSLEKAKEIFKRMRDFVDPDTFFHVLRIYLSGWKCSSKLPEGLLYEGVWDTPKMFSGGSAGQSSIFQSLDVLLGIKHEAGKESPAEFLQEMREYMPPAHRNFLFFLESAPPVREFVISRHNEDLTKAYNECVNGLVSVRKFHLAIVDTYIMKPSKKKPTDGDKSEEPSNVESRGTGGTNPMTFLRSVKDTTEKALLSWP
Method: This assay measures the product of the indoleamine 2,3-dioxygenase conversion of L-tryptophan to N-formyl-kynurenine by acid hydrolysis to kynurenine, which is measured indirectly though the absorbance (480 nm) of imine produced by the reaction of the aromatic amino group of klynurenine with p-dimethylaminobenzaldehyde (Ehrlich's reagent) as described by Takikawa et al. (J. Biol. Chem. (1988) 263:2041-2048). Typically, 200 μL of media from the test sample is combined with 12.5 μL of 30% TCA and incubated at 50° C. for 30 minutes. Evaporation was avoided by sealing the rim of the plate or tubes with parafilm. Samples are clarified by centrifugation for 10 minutes at 3-10K rpm. 100 μL of the supernatant was removed to a fresh well in an assay plate and mixed with 100 μL of fresh Ehrlich's reagent (2% p-dimethylaminobenzaldehyde w/v with glacial acetic acid). The plates were incubated for 10-30 minutes at room temperature and the absorbance was read at 490 nm. Typically, assays were performed in triplicate and the data analyzed using Excel software program (Microsoft). Background/control samples were typically derived from media from uninduced cells or cells that lack IDO1/2 expression vectors. Typically, control values were averaged and subtracted from the sample values. […]

## Cn1cc(CC(N)C(=O)O)c2ccccc21 (racemic) [1M-LD-T, 1-Methyl-DL-Tryptophan]
IDO2
  kynurenine production in IDO2 expressing cells: no changes in kynurenine levels
[1]
  rejection of allogeneic mouse concepti: elicit MHC-restricted and T cell-mediated rejection of allogeneic mouse concepti

## Cn1cc(C[C@@H](N)C(=O)O)c2ccccc21 [1M-D-T, 1-Methyl-D-Tryptophan]
IDO2
  kynurenine production in IDO2 expressing cells: decrease in kynurenine production in the IDO2 expressing cells was observed only with 1M-D-T in a dose dependent manner
[2]
  inhibition of purified recIDO2 proteins: inhibited
IDO2 activation of LIP
  inhibition of IDO2 activation of LIP: inhibited
IDO2 activation of LIP; summary statement
  activation of GCN2 kinase and subsequent altered LIP expression: blocks the activation of GCN2 kinase and subsequent altered LIP expression

## Cn1cc(C[C@H](N)C(=O)O)c2ccccc21 [1M-L-T, 1-Methyl-L-Tryptophan]
IDO2
  kynurenine production in IDO2 expressing cells: no changes in kynurenine levels
IDO2 activation of LIP
  inhibition of IDO2 activation of LIP: to a lesser extent
tumor
  antitumor activity: exhibits a characteristic pattern of antitumor activities; also recorded: effective at inhibiting IDO1 activity and tumor progression

## CN1C(=O)C(Cc2c[nH]c3ccccc23)NC1=S (centres unmarked) [MTH, 5-(indol-3-methyl)-3-methyl-2-thio-Hydantoin]
IDO1
  toxicity of inhibitor to the cells: not toxic to the cells
IDO1; doxycycline-induced T-REx cells, increasing concentrations, 5 days (FIG. 8A)
  kynurenine production in IDO1 expressing cells: decrease in kynurenine production in the IDO1 expressing cells was observed in a dose dependent manner
